This is an account of results in US20220402935A1, “HETEROCYCLIC COMPOUND” (FIMECS, INC., priority 2019, published 2022).

pIC50: −log10 of the molar value.

The target of test [1] is T1, IRAK-M (Homo sapiens, UniProt Q9Y616).
T1 sequence (Q9Y616 1-596): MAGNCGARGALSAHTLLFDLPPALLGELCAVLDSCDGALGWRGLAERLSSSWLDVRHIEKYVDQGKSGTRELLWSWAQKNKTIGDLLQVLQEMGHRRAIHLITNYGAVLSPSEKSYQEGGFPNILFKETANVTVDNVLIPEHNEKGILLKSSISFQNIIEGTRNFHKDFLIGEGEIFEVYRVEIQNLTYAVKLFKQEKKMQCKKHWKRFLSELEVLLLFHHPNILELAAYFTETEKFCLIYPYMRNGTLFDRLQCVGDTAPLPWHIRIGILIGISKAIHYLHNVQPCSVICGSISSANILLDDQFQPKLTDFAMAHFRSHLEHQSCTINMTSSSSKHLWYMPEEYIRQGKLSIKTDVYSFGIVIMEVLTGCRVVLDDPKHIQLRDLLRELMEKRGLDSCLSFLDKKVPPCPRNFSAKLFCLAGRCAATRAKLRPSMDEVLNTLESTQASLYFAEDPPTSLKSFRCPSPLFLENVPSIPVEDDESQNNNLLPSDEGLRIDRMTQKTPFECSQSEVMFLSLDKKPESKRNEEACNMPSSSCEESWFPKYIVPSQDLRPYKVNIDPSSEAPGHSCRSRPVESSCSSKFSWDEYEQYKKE
As to the kind of experiment: In vitro degradation activity of target protein (IRAK-M ELISA in THP1 cells). Type of test: cell-based. Set-up: host or cells: THP1 cells. Particulars: 24 hours, second symbol of cell, read-out: IRAK-M 50% degradation concentration (DC50 value). The method, then:
In vitro degradation activities of target protein of the example compounds were evaluated using Enzyme-linked immuno-sorbent assay (ELISA) by the following assay steps. THP1 cells (ATCC, TIB-202) were cultured in RPMI-1640 supplemented with 10% FBS, lx sodium pyruvate, lx HEPES, D-(+)-glucose and 1% penicillin/streptomycin. THP1 cells were seeded at a density of 1×10^6 cells/well in 24-well plate and treated with DMSO control or test compound, and then incubated for 24 hours. The cells were collected and lysed on ice for 30 minutes in lysis buffer (PBS containing 0.1% Triton X-100) containing a protease inhibitor cocktail (Roche, Cat #11836170001). The lysates were sonicated for 30 sec ON/30 sec OFF for ten cycles and centrifuged for 10 minutes at 13k rpm at 4° C. Protein concentrations were determined by the BCA assay (Sigma, Cat #QPBCA-1KT). The ELISA assay was performed using the Human IRAK3/IRAKM/IRAK-M ELISA Kit (LifeSpan BioSciences, Cat #LS-F35271), and the protein levels of IRAK-M were evaluated according to the kit protocol. As to the IRAK-M degradation rate of test compounds, protein degradation rate (%) when the concentration of the test compound is […] described as A≥75%, 50%≤B<75%, 25%≤C<50%, D<25%, or 50% degradation concentration (DC50 value) described as A<0.03 μM, 0.03 μM≤B<0.1 μM, 0.1 μM≤C<0.3 μM, 0.3 μM≤D<1 μM, is shown in the table below.
A general note: ELISA stands for enzyme-linked immunosorbent assay.

Test [2] concerns the target T2, human XIAP_BIR3 domain purified protein (Homo sapiens, UniProt P98170).
T2 construct: purchased R & D
Kind of test: XIAP binding inhibitory activity (HTRF, b-Smac ligand). The conditions noted are these: second symbol of cell; read-out: XIAP binding inhibition IC50 value. Put shortly: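 HTRF competition between compound and C-terminally biotinylated Smac peptide AVPIAQK for His-tagged XIAP BIR3, both diluted to 90 nM before addition, in pH 7.5 HEPES/NaCl/BSA/Triton buffer. Eu-cryptate anti-His and streptavidin-XL665 added, ≥4 h at room temperature in the dark; inhibition % from 665/615 nm ratio versus no-compound wells.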
A general note: Time-resolved FRET reads energy transfer from a long-lived donor to a nearby acceptor.

The target in test [3] is T1, IRAK-M. Kind of test: IRAK-M binding inhibitory activity (KINOMEscan active site-dependent competitive assay). Set-up: purchased Eurofins Discover X. The conditions noted are these: concentration of the test compound 1 μM; first symbol of cell; read-out: IRAK-M binding inhibition activity % Ctrl. Put shortly:
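Readout given as % Ctrl, with DMSO as 100% and a control compound as 0%, scaling the test compound signal between them. Binding to human IRAK-M was assessed by KINOMEscan competition at the kinase active site.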

T2 sequence (P98170 252-356 limits assumed): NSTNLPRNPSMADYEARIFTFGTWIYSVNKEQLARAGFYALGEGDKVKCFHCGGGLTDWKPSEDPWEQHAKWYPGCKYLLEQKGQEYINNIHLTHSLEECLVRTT

Turning to `CN[C@@H](C)C(=O)N[C@H](C(=O)N1CCN(C(=O)c2c(Cl)c3ccccc3n2CC(=O)N2CCC[C@H]2COc2cc(CN3CCC(Oc4ccnc5ccsc45)CC3)on2)CC1)C1CCCCC1` [Example 38, (S)-N-((S)-2-(4-(3-chloro-1-(2-oxo-2-((S)-2-(((5-((4-(thieno[3,2-b]pyridin-7-yloxy)piperidin-1-yl)methyl)isoxazol-3-yl)oxy)methyl)pyrrolidin-1-yl)ethyl)-1H-indole-2-carbonyl)piperazin-1-yl)-1-cyclohexyl-2-oxoethyl)-2-(methylamino)propanamide], the DC50 on IRAK-M [1] was in the range of 300 to 1000 nM. Also, in test [2], the pIC50 is 4.52 to 5.52. In addition, the remaining binding at 1 µM at IRAK-M [3] lay within 25 to 50%.

Turning to `CN[C@@H](C)C(=O)N[C@H](C(=O)N1CCN(C(=O)c2c(C)c3cc(F)ccc3n2CC(=O)N2CCC[C@H]2COc2cc(CN3CCC(Oc4ccnc5ccsc45)CC3)on2)CC1)C1CCCCC1` [Example 39, (S)-N-((S)-1-cyclohexyl-2-(4-(5-fluoro-3-methyl-1-(2-oxo-2-((S)-2-(((5-((4-(thieno[3,2-b]pyridin-7-yloxy)piperidin-1-yl)methyl)isoxazol-3-yl)oxy)methyl)pyrrolidin-1-yl)ethyl)-1H-indole-2-carbonyl)piperazin-1-yl)-2-oxoethyl)-2-(methylamino)propanamide], on IRAK-M [1], the DC50 is 100 to 300 nM. In addition, the pIC50 in test [2] was 4.52 to 5.52. Moreover, the remaining binding at 1 µM on IRAK-M [3] lay in the range of 25 to 50%.

For `CN[C@@H](C)C(=O)N[C@H](C(=O)N1CCN(C(=O)c2c(Cl)c3cc(F)ccc3n2CC(=O)N2CCC[C@H]2COc2cc(CN3CCC(Oc4ccnc5ccsc45)CC3)on2)CC1)C1CCCCC1` [Example 40, (S)-N-((S)-2-(4-(3-chloro-5-fluoro-1-(2-oxo-2-((S)-2-(((5-((4-(thieno[3,2-b]pyridin-7-yloxy)piperidin-1-yl)methyl)isoxazol-3-yl)oxy)methyl)pyrrolidin-1-yl)ethyl)-1H-indole-2-carbonyl)piperazin-1-yl)-1-cyclohexyl-2-oxoethyl)-2-(methylamino)propanamide], the DC50 at IRAK-M [1] lay within 300 to 1000 nM. Besides, the pIC50 in test [2] was 4.52 to 5.52. The remaining binding at 1 µM on IRAK-M [3] was 25 to 50%.

As to `CN[C@@H](C)C(=O)N[C@H](C(=O)N1CCN(C(=O)c2c(F)c3cc(F)ccc3n2CC(=O)N2CCC[C@H]2COc2cc(CN3CCC(Oc4ccnc5ccsc45)CC3)on2)CC1)C1CCCCC1` [Example 41, (S)-N-((S)-1-cyclohexyl-2-(4-(3,5-difluoro-1-(2-oxo-2-((S)-2-(((5-((4-(thieno[3,2-b]pyridin-7-yloxy)piperidin-1-yl)methyl)isoxazol-3-yl)oxy)methyl)pyrrolidin-1-yl)ethyl)-1H-indole-2-carbonyl)piperazin-1-yl)-2-oxoethyl)-2-(methylamino)propanamide], at IRAK-M [1], the DC50 is 100 to 300 nM. The negative-log IC50 (pIC50) in test [2] is 4.52 to 5.52. For the same molecule, at IRAK-M [3], the remaining binding at 1 µM was 25 to 50%.

In the case of `CN[C@@H](C)C(=O)N[C@H](C(=O)N1CCN(C(=O)c2cc3cc(F)c(F)cc3n2CC(=O)N2CCOC[C@H]2COc2cc(CN3CCC(Oc4ccnc5ccsc45)CC3)on2)CC1)C1CCCCC1` [Example 44, (S)-N-((S)-1-cyclohexyl-2-(4-(5,6-difluoro-1-(2-oxo-2-((S)-3-(((5-((4-(thieno[3,2-b]pyridin-7-yloxy)piperidin-1-yl)methyl)isoxazol-3-yl)oxy)methyl)morpholino)ethyl)-1H-indole-2-carbonyl)piperazin-1-yl)-2-oxoethyl)-2-(methylamino)propanamide], at IRAK-M [1], the DC50 fell in the range of 300 to 1000 nM. For the same molecule, the pIC50 in test [2] was 4.52 to 5.52. In addition, the remaining binding at 1 µM at IRAK-M [3] fell in the range of 25 to 50%.

Take `CN[C@@H](C)C(=O)N[C@H](C(=O)N1CCN(C(=O)c2cc3c(OCCOCCOCCOCCOc4cc(CN5CCC(Oc6ccnc7ccsc67)CC5)on4)c(F)c(F)cc3n2C)CC1)C1CCCCC1` [Example 51, (S)-N-((S)-1-cyclohexyl-2-(4-(5,6-difluoro-1-methyl-4-(2-(2-(2-(2-((5-((4-(thieno[3,2-b]pyridin-7-yloxy)piperidin-1-yl)methyl)isoxazol-3-yl)oxy)ethoxy)ethoxy)ethoxy)ethoxy)-1H-indole-2-carbonyl)piperazin-1-yl)-2-oxoethyl)-2-(methylamino)propanamide]: on IRAK-M [1], the DC50 fell in the range of 100 to 300 nM. Besides, the pIC50 in test [2] was 5.52 to 6.52. The remaining binding at 1 µM on IRAK-M [3] was below 25%.

Turning to `CN[C@@H](C)C(=O)N[C@H](C(=O)N1CCC[C@H]1c1nc(C(=O)c2cccc(OCCOCCOCCOc3cc(CN4CCC(Oc5ccnc6ccsc56)CC4)on3)c2)cs1)C1CCCCC1` [Example 59, (S)-N-((S)-1-cyclohexyl-2-oxo-2-((S)-2-(4-(3-(2-(2-(2-((5-((4-(thieno[3,2-b]pyridin-7-yloxy)piperidin-1-yl)methyl)isoxazol-3-yl)oxy)ethoxy)ethoxy)ethoxy)benzoyl)thiazol-2-yl)pyrrolidin-1-yl)ethyl)-2-(methylamino)propanamide], at IRAK-M [1], the DC50 lay in the range of 300 to 1000 nM. In addition, in test [2], the pIC50 is above 6.52. At IRAK-M [3], the remaining binding at 1 µM was below 25%.

One may read the pIC50 as the IC50 on a negative log10 scale, so that one unit is a factor of ten.
